From patent US4603144A, “Kojic acid ether-ester derivatives” (G. D. Searle & Co., priority 1984, dated 1986)

Molecular target: T1, Human Leukocyte Elastase (HLE) (Homo sapiens, UniProt P08246)
T1 sequence (P08246 30-267): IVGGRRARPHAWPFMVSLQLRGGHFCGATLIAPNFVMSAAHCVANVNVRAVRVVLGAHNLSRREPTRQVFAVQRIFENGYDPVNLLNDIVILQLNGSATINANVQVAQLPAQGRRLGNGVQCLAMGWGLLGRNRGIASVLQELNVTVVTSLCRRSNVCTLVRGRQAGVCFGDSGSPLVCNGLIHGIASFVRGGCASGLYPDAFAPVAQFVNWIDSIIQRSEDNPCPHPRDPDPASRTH
Assay: Inhibition of Human Leukocyte Elastase (HLE); hydrolysis of Methoxy-succinyl-Alanyl-Alanyl-Prolyl-Valyl-nitroanilide
Format: biochemical
Settings: for inhibition at 20 µM: 2.0 × 10^-5 Molar; for inhibition at 10 µM: 1.0 × 10^-5 Molar; for inhibition at 0.2 µM: 2.0 × 10^-7 Molar; for inhibition at 0.05 µM: 5.0 × 10^-8 Molar; for inhibition at 1 µM: 1.0 × 10^-6 Molar; for inhibition at 5 µM: 5.0 × 10^-6 Molar
Method: Inhibition of Human Leukocyte Elastase (HLE)
This test measures the rate of hydrolysis of Methoxy-succinyl-Alanyl-Alanyl-Prolyl-Valyl-nitroanilide by HLE in the presence and absence of the compound to be tested. The procedure used is as follows. The following stock solutions are prepared.
1. a saline solution of HLE prepared from a composition containing 10% HLE with the remainder being sodium acetate (300 micrograms per ml) wherein the concentration was adjusted to give a change in absorption of 0.12 od units per minute in the assay in the absence derivative,
2. a dimethylsulfoxide solution of the nitroanilide peptide (2m mole),
3. tris-HCl buffer (0.2M,pH 8.0) and
4. a dimethylsulfoxide solution of the derivative to be tested at 20 times the desired final concentration.
The test hydrolysis solution was then prepared by adding 850 microliters buffer, 50 microliters derivative solution, 50 microliters peptide solution to a 1 cm. semi-micro cuvette. The cuvette was capped, slightly shaken and placed in the light chamber of a recording colorimeter where the increase in absorption at 410 nm. due to liberated nitroaniline was measured. Using this procedure, the one minute change in absorption of the test sample containing derivative was compared to the change in absorption in the absence of derivative. A 20% or more decrease in the rate of absorption was interpreted as a positive inhibition.

| inhibition at 20 µM | inhibition at 10 µM | inhibition at 0.2 µM | inhibition at 0.05 µM | inhibition at 1 µM | inhibition at 5 µM | Structure (SMILES) |
| --- | --- | --- | --- | --- | --- | --- |
| 24% |  |  |  |  |  | CCCCCCCCCCCCCCCCCCOCc1cc(=O)c(OCc2ccccc2)co1 [Example 11, 2-[(octadecyloxy)methyl]-5-(phenylmethoxy)-4Hpyran-4-one] |
| 48% | 34% |  |  |  |  | CCCCCCCCCCCCCCOCc1cc(=O)c(O)co1 [Example 12, 5-hydroxy-2-[(tetradecyloxy)methyl]-4Hpyran-4-one] |
| 23% |  |  |  |  |  | CCCCCCCCCCCCCCCCOCc1cc(=O)c(O)co1 [Example 13, 5-hydroxy-2-[(hexadecyloxy)methyl]-4Hpyran-4-one] |
| 50% | 46% |  |  |  |  | CCCCCCCCCCCCCCCCCCOCc1cc(=O)c(O)co1 [Example 14, 5-hydroxy-2-[(octadecyloxy)methyl]-4Hpyran-4-one] |
| 88% | 81% | 60% | 38% |  |  | CCCCCCCCCCCCCCOCc1cc(=O)c(OC(=O)C(C)(C)C)co1 [Example 15, 4-oxo-2-[(tetradecyloxy)methyl]-4H pyran-5-yl-2,2-dimethylpropanoate] |
| 89% | 87% | 52% | 27% | 69% |  | CCCCCCCCCCCCCCCCOCc1cc(=O)c(OC(=O)C(C)(C)C)co1 [Example 16, 2-[(hexadecyloxy)methyl]-4-oxo-4H pyran-5-yl-2,2-dimethylpropanoate] |
|  |  | 81% | 61% | 88% |  | CCCCCCCCCCCCCCCCOCc1cc(=O)c(OC(=O)C(C)C)co1 [Example 17, 2-[(hexadecyloxy)methyl]-4-oxo-4H pyran-5-yl-2-methylpropanoate] |
| 59% | 48% |  |  |  |  | CCCCCCCCCCCCCCCCOCc1cc(=O)c(OC(=O)C(C)C(C)C)co1 (centres unmarked) [Example 18, 2-[(hexadecyloxy)methyl]-4-oxo-4H pyran-5-yl-2,3-dimethylbutanoate] |
| 67% | 52% |  |  |  |  | CCCCCCCCCCCCCCCCOCc1cc(=O)c(OC(=O)CC(C)C)co1 [Example 19, 2-[(hexadecyloxy)methyl]-4-oxo-4H pyran-5-yl-3-methylbutansate] |
| 66% | 73% |  |  |  | 69% | CCCCCCCCCCCCCCCCCCOCc1cc(=O)c(OC(=O)C(C)(C)C)co1 [Example 20, 2-[(octadecyloxy)methyl] -4-oxo-4Hpyran-5-yl-2,2-dimethylpropanoate] |
| 23% |  |  |  |  |  | CCCCCCCCCCCCCCCCOc1coc(COC2CCCCO2)cc1=O (centres unmarked) [Example 21, 5-Hexadecyloxy-2-tetrahydropyrany/oxymethyl-4H pyran-4-one] |
| 65% | 62% |  |  |  | 36% | CCCCCCCCCCCCCCCCOc1coc(COC(=O)C(C)(C)C)cc1=O [Example 23, 5-Hexadecyloxy-4-oxo-4Hpyran-2-hydroxymethyl-2,2-dimethylpropanoate] |
| 86% | 83% |  |  |  | 84% | CCCCCCCCCCCCCCCCOc1coc(C(=O)O)cc1=O [Example 24, 5-Hexadecyloxy-2-carboxyl-4Hpyran-4-one] |
